Reference: PubChem BioAssay AID1361 (SRMLSC, 2008)
Activity calls are given as the source filed them. How the calls were made is not given here.

Assay: mitochondrial fusion inhibitors, confirmation, cell-based, chemical genetic, wild-type and mutant (AID 1361)
Details: Cell-based mitochondrial fusion phenotype, imaging
[1] = mutant cells, measured here: mutant cell line IC50

O=c1[nH]c(=O)n(Cc2ccco2)c2c1C(C(F)(F)F)(C(F)(F)F)N=C(Cc1ccccc1)N2
IC50 (WT cells): > 25 µM (inactive) | IC50 [1]: > 12.5 µM

CC1CC(C)CN(C(=O)c2cc3cc(Br)cc(Br)c3o2)C1 (configuration not stated)
IC50 (WT cells): 13.7 µM | IC50 [1]: 22.5 µM

Cc1cccc(-n2c(-c3csc4ccccc34)n[nH]c2=S)c1
IC50 (WT cells): > 25 µM (inactive) | IC50 [1]: > 25 µM

Cc1nn(CCC(N)=S)c2nc(-c3cccs3)cc(C(F)(F)F)c12
IC50 (WT cells): 18.9 µM | IC50 [1]: > 25 µM

O=C(NCc1ccco1)c1cc(-c2ccccc2)on1
IC50 (WT cells): > 25 µM (inactive) | IC50 [1]: > 25 µM

O=C(CCN1C(=O)/C(=C\c2cccs2)SC1=S)NC1=NCCS1
IC50 (WT cells): 8.36 µM | IC50 [1]: 17.6 µM

S=C1NC(C23CC4CC(CC(C4)C2)C3)=CC(c2ccc3c(c2)OCO3)N1 (configuration not stated)
IC50 (WT cells): 4.6 µM | IC50 [1]: > 25 µM

CCCCn1c(N2CCC(Cc3ccccc3)CC2)nc2c1c(=O)[nH]c(=O)n2C
IC50 (WT cells): 13.7 µM | IC50 [1]: > 25 µM

CCOC(=O)c1c(C)[nH]c(C)c1C(=O)CSc1nnc(-c2ccncc2)n1C
IC50 (WT cells): > 25 µM (inactive) | IC50 [1]: > 25 µM

Cc1cccc(-n2c(CCc3ccccc3)nnc2SCC(=O)c2ccccc2)c1
IC50 (WT cells): 20.6 µM | IC50 [1]: > 25 µM

O=C(CN1CCCCC1)Nc1ccc(Br)cc1C(=O)c1ccccc1Cl
IC50 (WT cells): 12 µM | IC50 [1]: > 25 µM

Cc1ccc(Nc2ccc(C(=O)O)cc2N)cc1
IC50 (WT cells): > 25 µM (inactive) | IC50 [1]: > 25 µM

CN1CCN(CCCNC(=O)c2ccc(/C=C3/Sc4ccccc4N(Cc4cccc(Cl)c4)C3=O)cc2)CC1
IC50 (WT cells): 12.1 µM | IC50 [1]: > 12.5 µM

CCc1cccc(C)c1NC(=S)NCCc1c(C)[nH]c2ccc(C)cc12
IC50 (WT cells): > 25 µM (inactive) | IC50 [1]: > 25 µM

Cc1ncsc1C(=O)N1N=C2/C(=C/c3ccccc3)CCCC2C1c1ccccc1 (configuration not stated)
IC50 (WT cells): 10.3 µM | IC50 [1]: > 25 µM

COc1ccccc1N1CCN(CC(=O)Nc2ccc(Cl)c(C(F)(F)F)c2)CC1
IC50 (WT cells): 20.2 µM | IC50 [1]: > 25 µM

Clc1ccc2c(c1)C(c1ccccc1Cl)=NCc1nnc(N3CCN(CCOc4ccccc4)CC3)n1-2
IC50 (WT cells): 23.7 µM | IC50 [1]: > 25 µM

CCOC(=O)C1=C(C)NC(SC(C)=O)=NC1c1ccc(OC(C)=O)c(OC)c1 (configuration not stated)
IC50 (WT cells): > 25 µM (inactive) | IC50 [1]: > 25 µM

CCc1nnc(NC(=O)c2ccc(S(=O)(=O)N(CC(C)C)CC(C)C)cc2)o1
IC50 (WT cells): 22.5 µM | IC50 [1]: > 25 µM

CC(C)(C)n1nnnc1C(c1ccc(F)cc1)N(Cc1ccc(F)cc1)Cc1ccco1 (configuration not stated)
IC50 (WT cells): 14.6 µM | IC50 [1]: > 25 µM

COC(=O)Cc1ccc(N(Cc2ccccc2F)S(=O)(=O)c2ccc(C)cc2)cc1
IC50 (WT cells): 3.34 µM | IC50 [1]: > 25 µM

COc1ccc(OC)c(S(=O)(=O)Nc2ccc(Oc3ccccc3)cc2)c1
IC50 (WT cells): > 25 µM (inactive) | IC50 [1]: > 25 µM

CCCn1c(CN(Cc2ccccc2)Cc2ccccc2)nc2c1c(=O)n(C)c(=O)n2C
IC50 (WT cells): 20.6 µM | IC50 [1]: > 25 µM

CCOC(=O)C1=C(NC(=S)NC(=O)c2ccccc2)c2ccccc2CC1(C)CC (configuration not stated)
IC50 (WT cells): 7.33 µM | IC50 [1]: > 25 µM

CCOc1ccc(OCC)c(S(=O)(=O)NCCOC23CC4CC(CC(C4)C2)C3)c1
IC50 (WT cells): > 25 µM (inactive) | IC50 [1]: > 25 µM

COc1cc(/C=C2\SC(=O)N(c3ccccc3Cl)C2=O)cc([N+](=O)[O-])c1O
IC50 (WT cells): 13.6 µM | IC50 [1]: 20.8 µM

COc1ccc(NC(=O)c2ccc(-c3ccccc3C(F)(F)F)o2)cc1
IC50 (WT cells): 16.4 µM | IC50 [1]: 21.7 µM

CCOC(=O)C1=C(C)NC(C)=C(C(=O)OC)C1c1cccc(Cl)c1Cl (configuration not stated)
IC50 (WT cells): 20.4 µM | IC50 [1]: > 25 µM

CCOC(=O)C1=NN(c2ccccc2)C2=NC(C)=C(C(=O)OC)C(c3ccc(C)cc3)N12 (configuration not stated)
IC50 (WT cells): 8.75 µM | IC50 [1]: > 25 µM

CCOC(=O)c1cnc(SC)nc1Sc1cc(Cl)ccc1Cl
IC50 (WT cells): 11.2 µM | IC50 [1]: 23.9 µM

FC(F)(F)c1cnc(Sc2nc3nccc(-c4ccc(Cl)cc4)n3n2)c(Cl)c1
IC50 (WT cells): > 25 µM (inactive) | IC50 [1]: > 25 µM

FC(F)(F)c1ccc(Oc2ccc3ccccc3c2Br)nc1
IC50 (WT cells): > 25 µM (inactive) | IC50 [1]: > 12.5 µM

O=C(OCc1csc(Nc2ccccc2)n1)c1ccc(Cl)cc1
IC50 (WT cells): 10.1 µM | IC50 [1]: 17.6 µM

O=Nc1c(O)n(Cc2cccc(Cl)c2)c2ccccc12
IC50 (WT cells): > 25 µM (inactive) | IC50 [1]: > 25 µM

CC(=O)Oc1ccc(N(C(C)=O)S(=O)(=O)c2cccs2)cc1
IC50 (WT cells): > 25 µM (inactive) | IC50 [1]: > 25 µM

CCCn1c(N2CCC(Cc3ccccc3)CC2)nc2c1c(=O)[nH]c(=O)n2C
IC50 (WT cells): > 25 µM (inactive) | IC50 [1]: > 25 µM

Cc1cc(Nc2ccccc2)c2c([N+](=O)[O-])cc(C)c(C)c2n1
IC50 (WT cells): > 25 µM (inactive) | IC50 [1]: > 25 µM

CC(C)Cc1nc(N2CCN(C(=O)c3ccccc3)CC2)c(C#N)c2c1CCC2
IC50 (WT cells): 16.3 µM | IC50 [1]: > 25 µM

CCOc1cc(C(=O)N(C)Cc2cc3ccccc3[nH]c2=O)cc(OCC)c1OCC
IC50 (WT cells): > 25 µM (inactive) | IC50 [1]: > 25 µM

COC(=O)c1ccc(-c2sc3nc(N4CCOCC4)c4c(c3c2N)CCCC4)o1
IC50 (WT cells): > 25 µM (inactive) | IC50 [1]: > 25 µM

CCC(C)c1ccccc1NC(=O)COC(=O)c1ccc2[nH]c3c(c2c1)CCCC3 (configuration not stated)
IC50 (WT cells): 9.98 µM | IC50 [1]: > 25 µM

C/C1=C\[C@@H](C)C/C=C/[C@H]2[C@@H]3O[C@]3(C)[C@@H](C)[C@H]3[C@H](Cc4c[nH]c5ccccc45)NC(=O)[C@]32C(=O)/C=C/C(=O)[C@@H]1O
IC50 (WT cells): 19 µM | IC50 [1]: > 25 µM

CC(C)(C)n1nnnc1C(c1cccs1)N1CCCC2(CCCCC2)C1 (configuration not stated)
IC50 (WT cells): 4.86 µM | IC50 [1]: > 25 µM

CN1C=CC=C/C1=C1\SC(=S)N(c2ccccc2)C1=O
IC50 (WT cells): > 25 µM (inactive) | IC50 [1]: > 25 µM

Cc1ccc2cc(CN(C(=O)c3ccco3)c3ccccc3C)c(=O)[nH]c2c1
IC50 (WT cells): > 25 µM (inactive) | IC50 [1]: > 25 µM

Cc1cc(NCCCn2ccnc2)n2ncc(-c3ccc(Cl)cc3)c2n1
IC50 (WT cells): 11.1 µM | IC50 [1]: 17.9 µM

COc1ccc(/C=N/NC(=O)c2ccn[nH]2)cc1COc1ccc(Cl)cc1Cl
IC50 (WT cells): 23 µM | IC50 [1]: > 25 µM

CCCCNC(=S)N(C)/N=C/c1c(F)c(F)c(F)c(F)c1F
IC50 (WT cells): > 25 µM (inactive) | IC50 [1]: > 25 µM

O=C(CSc1nnc(CCc2ccccc2)n1-c1ccc(Cl)cc1)c1ccccc1
IC50 (WT cells): 17.2 µM | IC50 [1]: > 25 µM

O=C(CN1C(=O)COc2ccccc21)N(Cc1cccnc1)Cc1cccc(F)c1
IC50 (WT cells): > 25 µM (inactive) | IC50 [1]: > 25 µM

Cc1ccc(C(C)C)cc1OCC(=O)N/N=C/c1ccc2c(c1)OCCO2
IC50 (WT cells): 18.3 µM | IC50 [1]: > 25 µM

CCCCN(C(=O)c1cccc2c(=O)c(C)c(-c3ccccc3)oc12)c1ccccc1
IC50 (WT cells): 14.7 µM | IC50 [1]: > 25 µM

CS(=O)(=O)N(CC(=O)NCc1ccc2c(c1)OCO2)c1ccc(Cl)cc1
IC50 (WT cells): > 25 µM (inactive) | IC50 [1]: > 25 µM

Cc1ccc(OCc2n[nH]c(=S)n2-c2ccccc2)cc1C
IC50 (WT cells): 24.4 µM | IC50 [1]: > 25 µM

CCOC(=O)C1=C(C)Nc2sc(C(=O)c3ccc(F)cc3)c(N)c2C1c1ccc(C(=O)OC)cc1 (configuration not stated)
IC50 (WT cells): 2.57 µM | IC50 [1]: > 25 µM

CC(=O)C(N=Nc1ccccc1)(Sc1nnc(-c2ccccc2)n1-c1ccccc1)C(C)=O
IC50 (WT cells): 6.6 µM | IC50 [1]: > 25 µM

CCN(Cc1ccccc1)C(c1cccs1)c1nnnn1C1CCCCC1 (configuration not stated)
IC50 (WT cells): 8.92 µM | IC50 [1]: > 25 µM

COC(=O)c1cn(N(C)c2ncc(C(F)(F)F)cc2Cl)c(=O)c2ccccc12
IC50 (WT cells): 15.8 µM (inactive) | IC50 [1]: 15.5 µM

CCN=c1scc(-c2ccco2)n1/N=C/c1ccc(OC)c(O)c1
IC50 (WT cells): > 25 µM (inactive) | IC50 [1]: > 25 µM

CN1CC(c2ccccc2)C2(SC(=S)N(Cc3ccco3)C2=O)C12C(=O)Nc1ccccc12 (configuration not stated)
IC50 (WT cells): 6.9 µM | IC50 [1]: 12 µM

S=C(Nc1ccccc1Oc1ccccc1)Nc1cccc(Cl)c1Cl
IC50 (WT cells): 12.6 µM | IC50 [1]: 22.4 µM

O=C(CCN1C(=O)/C(=C/c2cccs2)SC1=S)NC1=NCCS1
IC50 (WT cells): 12.5 µM | IC50 [1]: > 25 µM

Cc1ccc(NC(=O)C2(c3ccccc3)CC2(Cl)Cl)cc1C (configuration not stated)
IC50 (WT cells): > 25 µM (inactive) | IC50 [1]: > 25 µM

N#CC(c1ccc(Cl)cc1)(c1ncc(C(F)(F)F)cc1Cl)N1CCOCC1 (configuration not stated)
IC50 (WT cells): > 25 µM (inactive) | IC50 [1]: > 25 µM

COC(=O)c1c(NC(=O)CN2CCC3(O)CCCCC3C2c2ccccc2OC)sc(C)c1C (configuration not stated)
IC50 (WT cells): 10.4 µM | IC50 [1]: > 25 µM

CN1/C(=C\C(=O)Nc2ccc(Br)cc2)C(C)(C)c2ccccc21
IC50 (WT cells): 5.66 µM | IC50 [1]: 16.7 µM

CCC1(C)Cc2c(sc3[nH]c(=S)n(Cc4ccccc4)c(=O)c23)CO1 (configuration not stated)
IC50 (WT cells): 21.2 µM | IC50 [1]: > 25 µM

Cc1ccc(C(=O)Nc2nc(-c3ccccc3)c(-c3ccccc3)o2)cc1
IC50 (WT cells): 4.97 µM | IC50 [1]: 9.35 µM

C/C=C(\C)CN1CCN(c2cc(C)ccc2C)CC1
IC50 (WT cells): > 25 µM (inactive) | IC50 [1]: > 25 µM

COc1ccc(C2c3c(ncn(Cc4ccco4)c3=N)Oc3ccc4ccccc4c32)cc1 (configuration not stated)
IC50 (WT cells): 13.4 µM | IC50 [1]: > 25 µM

COc1ccc(CC(=O)N2CCOCC2)cc1OC
IC50 (WT cells): > 25 µM (inactive) | IC50 [1]: > 25 µM

COc1ccc(CCN(Cc2cc3cc(C)cc(C)c3nc2Cl)C(=O)C2CC2)cc1
IC50 (WT cells): 7.6 µM | IC50 [1]: > 25 µM

CC12CC3(C)CC(C)(C1)CC(C(=O)NC(=S)NC(C)(C)C)(C2)C3
IC50 (WT cells): 11.6 µM | IC50 [1]: > 25 µM

CC1CCN(S(=O)(=O)c2ccc(Oc3ccc([N+](=O)[O-])cc3)cc2)CC1
IC50 (WT cells): > 25 µM (inactive) | IC50 [1]: > 25 µM

CCOc1ccc(NS(=O)(=O)c2cnc(Cl)c(Cl)c2)cc1
IC50 (WT cells): 20.5 µM | IC50 [1]: > 25 µM

COc1ccccc1CNC(=O)c1ccccc1OCc1ccc(F)cc1
IC50 (WT cells): 21.8 µM | IC50 [1]: > 25 µM

CC(=O)Cc1nsc(NC(=O)c2ccc(-c3cc(Cl)ccc3Cl)o2)n1
IC50 (WT cells): > 25 µM (inactive) | IC50 [1]: > 25 µM

COc1ccc(CCNS(=O)(=O)c2ccc(OC)cc2)cc1
IC50 (WT cells): > 25 µM (inactive) | IC50 [1]: > 25 µM

Cc1cc(N/N=C/c2ccc(O)c(C)c2O)nc(-c2ccccc2O)n1
IC50 (WT cells): > 25 µM (inactive) | IC50 [1]: > 25 µM

Cc1cc(C)cc(NS(=O)(=O)c2ccc(Oc3ncc(C(F)(F)F)cc3Cl)cc2)c1
IC50 (WT cells): 10.9 µM | IC50 [1]: > 25 µM

c1ccc(CC2CCN(c3nnnn3-c3ccccc3)CC2)cc1
IC50 (WT cells): > 25 µM (inactive) | IC50 [1]: > 25 µM
